In the supplement of paper PMC10307832:

Key:
Assay in all cases: relative viability (nuclei count vs DMSO), 5 days (fraction); higher = more cells survive
[1] = compound: CCC1=CN=CN=C1N2CCN(CC2)CC3=NC4=C(N3)C=C(C=C4)C(F)(F)F + O=C(c1cc(Cc2n[nH]c(=O)c3ccccc23)ccc1F)N1CCN(C(=O)C2CC2)CC1 [Olaparib] (partner 8 µM)
Procedure, shortened: (§1)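 Lung cancer cell lines in 1536-well plates got either a single drug or a fixed anchor-drug dose together with five library-drug doses (not always all listed) in √10 steps, by pin tool, on the day after seeding. Nuclei were counted after 5 days, and relative viability is the treated-to-vehicle ratio of nuclei counts. Values are medians of duplicate plates.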

[2] = compound: CCn1c(-c2nonc2N)nc2cnc(Oc3cccc(NC(=O)c4ccc(OCCN5CCOCC5)cc4)c3)cc21 + CC(=O)c1c(C)c2cnc(Nc3ccc(N4CCNCC4)cn3)nc2n(C2CCCC2)c1=O [Palbociclib] (partner 0.5 µM)
Procedure, shortened: as §1

[3] = compound: CCn1c(-c2nonc2N)nc2cnc(Oc3cccc(NC(=O)c4ccc(OCCN5CCOCC5)cc4)c3)cc21 + COc1cc2c(Oc3ccc(NC(=O)C4(C(=O)Nc5ccc(F)cc5)CC4)cc3F)ccnc2cc1OCCCN1CCOCC1 [Foretinib] (partner 0.25 µM)
Procedure, shortened: as §1

Mirin + Decitabine = compound: N=C1NC(=O)/C(=C/c2ccc(O)cc2)S1 [Mirin] + Nc1ncn([C@H]2C[C@H](O)[C@@H](CO)O2)c(=O)n1 [Decitabine] (partner 2 µM)
Procedure, shortened: as §1

| Cell Line | relative viability ([1]; first compound 0.04 µM) | relative viability ([1]; first compound 0.1265 µM) | relative viability ([1]; first compound 0.4 µM) | relative viability ([1]; first compound 1.265 µM) | relative viability ([1]; first compound 4 µM) | relative viability ([2]; first compound 0.04 µM) | relative viability ([2]; first compound 0.1265 µM) | relative viability ([2]; first compound 0.4 µM) | relative viability ([2]; first compound 1.265 µM) | relative viability ([2]; first compound 4 µM) | relative viability ([3]; first compound 0.04 µM) | relative viability ([3]; first compound 0.1265 µM) | relative viability ([3]; first compound 0.4 µM) | relative viability ([3]; first compound 1.265 µM) | relative viability ([3]; first compound 4 µM) | relative viability (Mirin + Decitabine; first compound 0.25 µM) | relative viability (Mirin + Decitabine; first compound 0.7906 µM) | relative viability (Mirin + Decitabine; first compound 2.5 µM) | relative viability (Mirin + Decitabine; first compound 7.906 µM) | relative viability (Mirin + Decitabine; first compound 25 µM) |
| --- | --- | --- | --- | --- | --- | --- | --- | --- | --- | --- | --- | --- | --- | --- | --- | --- | --- | --- | --- | --- |
| LXF-289 | 1.08 | 1.01 | 1.05 | 1.02 | 0.933 | 0.67 | 0.654 | 0.6 | 0.585 | 0.548 | 1.06 | 1.02 | 0.982 | 0.936 | 0.882 | 0.347 | 0.394 | 0.335 | 0.347 | 0.387 |
| NCI-H23 | 0.353 | 0.4 | 0.29 | 0.345 | 0.243 | 0.708 | 0.521 | 0.547 | 0.394 | 0.353 | 1.05 | 0.909 | 0.978 | 0.853 | 0.862 | 0.298 | – | 0.292 | 0.295 | 0.284 |
| NCI-H322M | 0.792 | 0.811 | 0.725 | 0.672 | 0.85 | 0.543 | 0.51 | 0.487 | 0.451 | 0.486 | 1.51 | 1.24 | 1.22 | 0.71 | 0.8 | 0.674 | 0.712 | 0.725 | 0.705 | 0.614 |
| NCI-H358 | 0.659 | 0.607 | 0.542 | 0.62 | 0.548 | 0.162 | 0.167 | 0.134 | 0.145 | 0.135 | 0.886 | 0.653 | 0.775 | 0.396 | 0.44 | 0.238 | 0.194 | 0.242 | 0.169 | 0.177 |
| NCI-H441 | 0.459 | 0.543 | 0.543 | 0.458 | 0.529 | 0.26 | 0.234 | 0.157 | 0.226 | 0.25 | 1.12 | 1.04 | – | 0.859 | 0.79 | 0.251 | 0.259 | 0.244 | 0.217 | 0.218 |
| NCI-H460 | 0.521 | 0.423 | 0.404 | 0.368 | 0.399 | 0.213 | 0.126 | 0.101 | 0.056 | 0.073 | 1.06 | 0.902 | 0.978 | 0.426 | 0.16 | 0.517 | 0.504 | 0.467 | 0.505 | 0.539 |
| NCI-H520 | 0.291 | 0.415 | 0.349 | 0.333 | 0.298 | 0.242 | 0.207 | 0.199 | 0.176 | 0.175 | 0.962 | 0.994 | 0.755 | 0.603 | 0.429 | 0.531 | 0.563 | 0.494 | 0.374 | 0.479 |
| NCI-H647 | 0.458 | 0.528 | 0.452 | 0.519 | 0.408 | 0.494 | 0.297 | 0.317 | 0.235 | 0.297 | 1.27 | 1.09 | 0.913 | 0.668 | 0.715 | 0.446 | 0.423 | 0.361 | 0.401 | 0.387 |
| NCI-H650 | 0.386 | 0.373 | 0.393 | 0.331 | 0.347 | 0.349 | 0.297 | 0.255 | 0.201 | 0.184 | 1.12 | 0.774 | 0.531 | 0.366 | 0.438 | 0.32 | 0.335 | 0.306 | 0.294 | 0.354 |
| NCI-H661 | 0.802 | 0.719 | 0.767 | 0.661 | 0.738 | 0.363 | 0.395 | 0.366 | 0.365 | 0.303 | 0.966 | 0.846 | 0.925 | 0.801 | 0.522 | 0.587 | 0.569 | 0.539 | 0.501 | 0.525 |
| NCI-H727 | 0.73 | 0.593 | 0.719 | 0.61 | 0.641 | – | 0.63 | 0.599 | 0.657 | 0.622 | 1.08 | 0.888 | 0.852 | 1.15 | 1.15 | 0.603 | 0.83 | 1 | 0.865 | 0.922 |
| NCI-H838 | 0.816 | 0.752 | 0.737 | 0.712 | 0.74 | 0.19 | 0.175 | 0.147 | 0.157 | 0.179 | 0.771 | 0.7 | 0.562 | 0.378 | 0.371 | 0.432 | 0.424 | 0.517 | 0.424 | 0.361 |
| NCI-H1355 | 0.775 | 0.654 | 0.732 | 0.667 | 0.643 | 0.321 | 0.411 | 0.411 | 0.397 | 0.374 | 1.05 | 0.948 | 1.03 | 0.955 | 1 | 0.365 | 0.367 | 0.391 | 0.38 | 0.365 |
| NCI-H1395 | 0.459 | 0.482 | 0.461 | – | 0.469 | 0.562 | 0.558 | 0.565 | 0.457 | 0.482 | 1.03 | 0.95 | 0.975 | 0.501 | 0.561 | 0.721 | – | 0.814 | 0.741 | 0.66 |
| NCI-H1437 | 0.597 | 0.595 | 0.575 | 0.544 | 0.505 | 0.355 | 0.367 | 0.389 | 0.279 | 0.331 | 1.26 | 1.31 | 1.23 | 1.06 | 0.865 | 0.571 | 0.559 | 0.606 | 0.647 | 0.555 |
| NCI-H1650 | 0.682 | 0.797 | 0.708 | 0.642 | 0.907 | 0.466 | 0.32 | 0.294 | 0.335 | 0.328 | 1.19 | 1.32 | 1.49 | 1.23 | 0.969 | 0.479 | 0.385 | 0.403 | 0.31 | 0.364 |
| NCI-H1651 | 0.206 | 0.179 | 0.175 | 0.19 | 0.17 | 0.587 | 0.584 | 0.476 | 0.369 | 0.432 | 1 | 0.963 | 0.959 | 0.662 | 0.455 | 0.259 | 0.577 | 0.657 | 0.536 | 0.612 |
| NCI-H1666 | 0.743 | 0.729 | 0.772 | 0.727 | 0.71 | 0.635 | 0.64 | 0.613 | 0.57 | 0.538 | 1.1 | 1.11 | 1.2 | 0.767 | 0.442 | 0.543 | 0.676 | 0.76 | 0.654 | 0.692 |
| NCI-H1734 | 0.63 | 0.609 | 0.587 | 0.584 | 0.557 | 0.335 | 0.365 | 0.293 | 0.319 | 0.267 | 0.97 | 0.882 | 0.69 | 0.599 | 0.44 | 0.479 | 0.493 | 0.565 | 0.491 | 0.419 |
| NCI-H1755 | 0.915 | 0.903 | 0.856 | 0.82 | 0.75 | 0.457 | 0.46 | 0.397 | 0.454 | 0.424 | 0.907 | 0.957 | 0.916 | 0.619 | 0.645 | 0.725 | 0.775 | 0.703 | 0.717 | 0.752 |
| NCI-H1793 | 0.736 | 0.754 | 0.697 | 0.564 | 0.784 | 0.263 | 0.304 | 0.3 | 0.283 | 0.251 | 0.712 | 0.572 | 0.734 | 0.76 | 0.725 | 0.472 | – | 0.434 | 0.52 | 0.48 |
| NCI-H1915 | 0.27 | 0.248 | 0.252 | 0.268 | 0.249 | 0.522 | 0.524 | 0.516 | 0.386 | 0.376 | 1.09 | 1.14 | 1.1 | 1.08 | 1.12 | 0.275 | 0.252 | 0.278 | 0.255 | 0.255 |
| NCI-H1944 | 0.622 | 0.395 | 0.378 | 0.344 | 0.361 | 0.269 | 0.377 | 0.342 | 0.329 | 0.38 | 0.772 | 0.869 | 0.978 | 0.861 | 0.658 | 0.426 | 0.471 | 0.489 | 0.425 | 0.436 |
| NCI-H1975 | 0.9 | 0.729 | 0.735 | 0.718 | 0.667 | 0.476 | 0.446 | 0.273 | 0.23 | 0.474 | 0.869 | 0.717 | 0.664 | 0.412 | 0.281 | 0.427 | 0.329 | 0.402 | 0.36 | 0.401 |
| NCI-H1993 | 0.95 | 1.03 | 1.09 | 0.895 | 0.974 | 0.479 | 0.659 | 0.642 | 0.695 | 0.626 | 0.84 | 0.765 | 0.659 | 0.795 | 0.723 | 0.656 | 0.46 | 0.663 | 0.525 | 0.551 |
| NCI-H2009 | 0.647 | 0.649 | 0.632 | 0.578 | 0.594 | 0.175 | 0.196 | 0.141 | 0.112 | 0.19 | 1.07 | 0.974 | 0.921 | 0.642 | 0.356 | 0.354 | 0.373 | 0.425 | 0.361 | 0.405 |
| NCI-H2023 | 0.53 | 0.48 | 0.493 | 0.418 | 0.46 | 0.415 | 0.392 | 0.337 | 0.215 | 0.202 | 0.897 | 0.988 | 1.03 | 0.71 | 0.451 | 0.237 | 0.238 | 0.216 | 0.228 | 0.225 |
